# In patent publication US7223580B2, “N-acetylglucosamine transferase, nucleic acid encoding the same and use thereof in diagnosing cancer and/or tumor” (National Institute of Advanced Industrial Science and …, priority 2002, dated 2007):
# Target: T1, β3GnT-7 (Homo sapiens, UniProt Q8NFL0)
# T1 construct: made in house; host or cells: Sf21 insect cells (baculovirus, Bac-to-Bac); purified from culture supernatant on anti-M1 (anti-FLAG) resin
# T1 sequence (Q8NFL0 75-401): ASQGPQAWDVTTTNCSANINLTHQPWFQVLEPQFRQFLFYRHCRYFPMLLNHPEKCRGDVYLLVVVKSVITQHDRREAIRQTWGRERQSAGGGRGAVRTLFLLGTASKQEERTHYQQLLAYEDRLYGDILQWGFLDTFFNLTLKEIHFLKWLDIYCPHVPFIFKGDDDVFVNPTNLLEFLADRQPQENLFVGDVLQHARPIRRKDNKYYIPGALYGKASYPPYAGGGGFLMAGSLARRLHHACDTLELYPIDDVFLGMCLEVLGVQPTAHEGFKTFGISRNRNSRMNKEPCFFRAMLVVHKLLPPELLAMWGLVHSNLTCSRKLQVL
# Experiment: Search of acceptor substrate of β3Gn-T7 (UDP-[14C]GlcNAc transfer, TLC radioactivity)
# Format: biochemical
# Settings: acceptor substrate 10 nmol, donor UDP-GlcNAc 480 μM, 37° C. for 5 hours, pH7.2
# Text: Using the following reaction systems, the acceptor substrate was searched. As the “acceptor substrate” in the reaction solution described below, each of the following was used and whether each of them functioned as the acceptor or not was investigated: pNp-α-Glc, pNp-β-Glc, pNp-α-GlcNAc, pNp-β-GlcNAc, pNp-α-Gal, pNp-β-Gal, pNp-α-GalNAc, Bz-α-GalNAc, pNp-α-Xyl, pNp-β-Xyl, pNp-α-Fuc, Bz-α-Man, Bz-α-ManNAc, LacCer, GalCer typel and Bz-β-lactoside (all of them are from SIGMA) and Galβ1-4GlcNAc-α-pNp (TRONTO RESEARCH CHEMICAL).
# The reaction solution (the numbers in the parentheses indicate the final concentrations) contained acceptor substrate (10 nmol), sodium cacodylate buffer (pH7.2) (50 mM), Triton CF-54 (trademark) (0.4%), MnCl2 (10 mM), UDP-GlcNAC (480 μM) and UDP-[^14C]GlcNAC (175 nCi) and CDP-colline (5 mM), to which 10 μl of the β3Gn-T7 enzyme solution and H2O were added to attain a final volume of 25 μl.
# The reaction mixture was allowed to react at 37° C. for 5 hours, and after completion of the reaction, 200 μl of 0.1 M KCl was added, followed by light centrifugation and collection of the supernatant. […] After developing the mixture up to 5 mm from the top end of the TLC plate, the plate was dried and the intensity of the radioactivity taken in the product was measured using Bio Image Analyzer FLA3000 (FUJI PHOTO FILM).
row,whether it functioned as the acceptor (transfer of GlcNAc by β3GnT-7),SMILES
1,activity to transfer GlcNAc,"CC(=O)N[C@H]1[C@@H](Oc2ccc([N+](=O)[O-])cc2)O[C@H](CO)[C@@H](O[C@@H]2O[C@H](CO)[C@H](O)[C@H](O)[C@H]2O)[C@@H]1O [Galβ1-4Glc(NAc)-α-pNp, Galβ1-4GlcNAc-α-pNp]"
2,activity to transfer GlcNAc,OC[C@H]1O[C@@H](O[C@H]2[C@H](O)[C@@H](O)[C@H](OCc3ccccc3)O[C@@H]2CO)[C@H](O)[C@@H](O)[C@H]1O [Bz-β-lactoside]
